Experimental data taken from patent US7294630B2, “Piperazinyl piperidine tachykinin antagonists” (SmithKline Beecham Corporation, priority 2000, dated 2007).
Where a name gives a salt, the structure may show the parent alone.

Key:
[1] = target: T1, recombinant human NK1 receptors expressed in Chinese Hamster Ovary (CHO) cell membranes (Homo sapiens, UniProt P25103); assay: NK1-receptor binding affinity, displacement of [3H]-substance P; conditions: average of at least two determinations, [3H]substance P displacement; for Ki: read-out: pki (negative logarithm of the inhibition constant Ki) (converted)
T1 construct: expressed in transfected cells; host or cells: Chinese Hamster Ovary (CHO) cells, membrane preparation
T1 sequence (P25103 whole entry): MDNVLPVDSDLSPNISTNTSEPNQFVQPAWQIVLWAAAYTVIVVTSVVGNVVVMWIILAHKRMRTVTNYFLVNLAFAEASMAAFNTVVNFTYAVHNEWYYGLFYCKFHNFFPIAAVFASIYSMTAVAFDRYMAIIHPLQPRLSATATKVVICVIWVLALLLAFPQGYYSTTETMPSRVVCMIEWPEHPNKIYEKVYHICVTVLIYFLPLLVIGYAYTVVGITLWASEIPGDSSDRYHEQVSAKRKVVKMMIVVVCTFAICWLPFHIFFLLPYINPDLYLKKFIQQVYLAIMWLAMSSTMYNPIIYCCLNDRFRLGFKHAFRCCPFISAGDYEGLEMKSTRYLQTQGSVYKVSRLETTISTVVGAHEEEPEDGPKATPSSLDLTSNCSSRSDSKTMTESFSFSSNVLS
Protocol: CHO cell membranes were prepared by using a modification of the method described by Dam T and Quirion R (Peptides, 7:855-864, 1986). Thus ligand binding was performed in 0.4 ml of 50 mM HEPES, pH 7.4, containing 3 mM MnCl2, 0.02% BSA, 0.5 nM [^3H]Substance P (30÷56 Ci/mmol, Amersham), a final membrane concentration of 25 μg of protein/ml, and the test compounds. The incubation proceeded at room temperature for 40 min.
The affinity of the compound of the invention for NK1 receptor was determined using the NK1-receptor binding affinity method measuring in vitro by the compounds' ability to displace [3H]—substance P (SP) from recombinant human NK1 receptors expressed in Chinese Hamster Ovary (CHO) cell membranes. The affinity values are expressed as negative logarithm of the inhibition constant (Ki) of displacer ligands (pKi).

NK1 receptor = target: T2, NK1 receptor (Meriones unguiculatus, UniProt Q5DUB1); assay: gerbil foot tapping model (NK1 agonist icv); type: in vivo; conditions: read-out: ED50 (dose required to inhibit by 50% the tapping induced by the NK1 agonist), oral administration, four hours before NK1 agonist 3 pmol icv
T2 construct: from tissue; host or cells: living gerbil, central nervous system (NK1 agonist infused into the cerebral ventricles)
T2 sequence (Q5DUB1 whole entry, the tested form may be a part): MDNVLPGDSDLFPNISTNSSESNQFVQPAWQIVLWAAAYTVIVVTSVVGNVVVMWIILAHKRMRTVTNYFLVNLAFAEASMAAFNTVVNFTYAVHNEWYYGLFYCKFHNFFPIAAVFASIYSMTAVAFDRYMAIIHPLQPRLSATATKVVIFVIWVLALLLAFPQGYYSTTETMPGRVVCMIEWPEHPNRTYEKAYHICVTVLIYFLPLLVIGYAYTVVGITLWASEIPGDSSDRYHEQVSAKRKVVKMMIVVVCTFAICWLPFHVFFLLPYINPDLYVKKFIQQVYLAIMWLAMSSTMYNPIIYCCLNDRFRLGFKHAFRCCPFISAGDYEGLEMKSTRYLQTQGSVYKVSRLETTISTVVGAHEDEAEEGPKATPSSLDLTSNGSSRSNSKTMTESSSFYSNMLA
Excerpt: The action of the compounds of the invention at the NK1 receptor may be determined by using conventional tests.
The ability of the compounds of the invention to penetrate the central nervous system and to bind at the nk1 receptor may be determined using the gerbill foot tapping model as described by Rupniak & Williams, Eur. Jour. of Pharmacol., 1994.
The compound was orally administered and four hours later an NK1 agonist (e.g. delta-Aminovaler^6[Pro^9,Me-Leu^10]-substance P (7-11)) (3 pmol in 5 μicv) was infused directly in the cerebral ventricules of the animals. The duration of hind foot tapping induced by the NK1 agonist (e.g. delta-Aminovalery^6[Pro^9,Me-Leu^10]-substance P (7-11)) was recorded continuously for 3 min using a stopclock. […] Alternatively the compounds may be administered subcutaneously or intraperitoneally.

| Compound | Ki [1] [nM] | further results |
| --- | --- | --- |
| 2-(R)-(4-Fluoro-2-methyl-phenyl)-4-(S)-piperazin-1-yl-piperidine-1-carboxylic acid, [1-(R)-(3,5-bis-trifluoromethyl-phenyl)-ethyl]-methylamide hydrochloride [Example 9] |  | pki (negative logarithm of the inhibition constant Ki) [1]: 9.93 |
| Cc1cc(F)ccc1[C@H]1CC(N2CCN(C)CC2)CCN1C(=O)N(C)Cc1cc(C(F)(F)F)cc(C(F)(F)F)c1.Cl.Cl (mixture of isomers) [Example 10, 2-(R)-(4-Fluoro-2-methyl-phenyl)-4-(R,S)-(4-methyl-piperazin-1-yl)-piperidine-1-carboxylic acid, (3,5-bis-trifluoromethyl-benzyl)-methylamide dihydrochloride] | 0.115 | melting point: 208 to 209 °C |
| CC(=O)N1CCN([C@H]2CCN(C(=O)N(C)[C@H](C)c3cc(C(F)(F)F)cc(C(F)(F)F)c3)[C@@H](c3ccc(F)cc3C)C2)CC1.Cl [Example 3, 4-(S)-(4-Acetyl-piperazin-1-yl)-2-(R)-(4-fluoro-2-methyl-phenyl)-piperidine-1-carboxylic acid, [1-(R)-(3,5-bis-trifluoromethyl-phenyl)-ethyl]-methylamide hydrochloride] |  | ED50 (NK1 receptor): 0.05 mg/kg |
| CC(=O)N1CCN([C@H]2CCN(C(=O)N(C)Cc3cc(C(F)(F)F)cc(C(F)(F)F)c3)[C@@H](c3ccc(F)cc3C)C2)CC1.Cl [Example 7b, 4-(S)-(4-Acetyl-piperazin-1-yl)-2-(R)-(4-fluoro-2-methyl-phenyl)-piperidine-1-carboxylic acid, (3,5-bis-trifluoromethyl-benzyl)-methylamide hydrochloride] | 0.0741 | ED50 (NK1 receptor): 0.19 mg/kg |
| Cc1cc(F)ccc1[C@H]1C[C@@H](N2CCN(C(=O)N(C)C)CC2)CCN1C(=O)N(C)Cc1cc(C(F)(F)F)cc(C(F)(F)F)c1 [Example 15, 4-(S)-[1-[(3,5-Bis-trifluoromethyl-benzyl)-methyl-carbamoyl]-2-(R)-(4-fluoro-2-methyl-phenyl)-piperidin-4-yl]-piperazine-1-carboxylic acid, dimethylamide hydrochloride] | 0.0457 |  |
| CNC(=O)N1CCN([C@H]2CCN(C(=O)N(C)Cc3cc(C(F)(F)F)cc(C(F)(F)F)c3)[C@@H](c3ccc(F)cc3C)C2)CC1 [Example 16, 4-(S)-[1-[(3,5-Bis-trifluoromethyl-benzyl)-methyl-carbamoyl]-2-(R)-(4-fluoro-2-methyl-phenyl)-piperidin-4-yl]-1-carboxylic acid, methylamide hydrochloride] | 0.0437 |  |

Further lines, with some results ahead:

| Ki [1] [nM] | Compound | further results |
| --- | --- | --- |
| 0.209 | Cc1cc(F)ccc1[C@H]1CC(N2CCN(C)CC2)CCN1C(=O)N(C)[C@H](C)c1cc(C(F)(F)F)cc(C(F)(F)F)c1 (mixture of isomers) [Example 8, 2-(R)-(4-Fluoro-2-methyl-phenyl)-4-(R,S)-(4-methyl-piperazin-1-yl)-piperidine-1-carboxylic acid, [1-(R)-(3,5-bis-trifluoromethyl-phenyl)-ethyl]-methylamide hydrochloride] |  |
| 0.708 | CC(=O)N1CCN([C@@H]2CCN(C(=O)N(C)Cc3cc(C(F)(F)F)cc(C(F)(F)F)c3)[C@@H](c3ccc(F)cc3C)C2)CC1 [Example 7a, 4-(R)-(4-Acetyl-piperazin-1-yl)-2-(R)-(4-fluoro-2-methyl-phenyl)-piperidine-1-carboxylic acid, (3,5-bis-trifluoromethyl-benzyl)-methylamide hydrochloride] |  |
| 0.123 | Cc1cc(F)ccc1[C@H]1C[C@@H](N2CCN(C(=O)C3CC3)CC2)CCN1C(=O)N(C)[C@H](C)c1cc(C(F)(F)F)cc(C(F)(F)F)c1.Cl [Example 12, 4-(S)-(4-Cyclopropanoyl-piperazin-1-yl)-2-(R)-(4-fluoro-2-methyl-phenyl)-piperidine-1-carboxylic acid, [1-(R)-(3,5-bis-trifluoromethyl-phenyl)-ethyl]-methylamide hydrochloride] | ED50 (NK1 receptor): 0.27 mg/kg |
| 0.1 | Cc1cc(F)ccc1[C@H]1C[C@@H](N2CCN(C(=O)C(C)C)CC2)CCN1C(=O)N(C)[C@H](C)c1cc(C(F)(F)F)cc(C(F)(F)F)c1 [Example 14, 4-(S)-[4-(2-Methyl-propanoyl)-piperazin-1-yl]-2-(R)-(4-fluoro-2-methyl-phenyl)-piperidine-1-carboxylic acid, [1-(R)-(3,5-bis-trifluoromethyl-phenyl)-ethyl]-methylamide hydrochloride] |  |
| 0.417 | CC(=O)N1CCN([C@H]2CCN(C(=O)N(C)[C@H](C)c3cc(C(F)(F)F)cc(C(F)(F)F)c3)[C@@H](c3ccc(F)cc3)C2)CC1 [Example 19, 4-(S)-(4-Acetyl-piperazin-1-yl)-2-(R)-(4-fluoro-phenyl)-piperidine-1-carboxylic acid, [1-(R)-(3,5-bis-trifluoromethyl-phenyl)-ethyl]-methylamide hydrochloride] |  |
